Laboratory results: patent US20260317324A1, “BIFUNCTIONAL COMPOUNDS FOR DEGRADING BRAF VIA UBIQUITIN PROTEOSOME PATHWAY” (Nurix Therapeutics, Inc., priority 2023, published 2026)

Target: T1, BRAF V600E (Homo sapiens, UniProt P15056, V600E)
T1 construct: endogenous C-terminal HiBiT fusion tag on BRAF V600E allele; endogenous in cells; host or cells: A375 clone 1F10 (CRISPR-Cas9 knock-in of the HiBiT tag; parental A375 from ATCC)
Experiment: BRAF HiBiT degradation assay, C-terminal HiBiT-tagged BRAF V600E A375 cells (clone 1F10), Nano-Glo HiBiT Lytic assay
Type: cell-based
Conditions: for Dmax: A-375
Outline: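 A375 cells with CRISPR knock-in C-terminal HiBiT on endogenous BRAF V600E (clone 1F10) were seeded and cultured 24 h at 37 °C, then dosed with an 11-point half-log series (1 μM to 0.01 nM, duplicate, 0.2% DMSO). Lytic HiBiT luminescence gave % protein remaining; DC50 was the fitted concentration at 50%.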

[1] = A375 (BRAF V600E), percentage protein degraded at maximal compound effect relative to DMSO
[2] = A375 (BRAF V600E, Class 1), DC50 at 50% degradation
[3] = A375 (BRAF V600E, Class 1), observed Dmax, % protein degraded relative to DMSO control
[4] = A375 (BRAF V600E), DC50 at 50%: fitted conc. at Y=50

T1 sequence (P15056 whole entry V600E, the tested form may be a part): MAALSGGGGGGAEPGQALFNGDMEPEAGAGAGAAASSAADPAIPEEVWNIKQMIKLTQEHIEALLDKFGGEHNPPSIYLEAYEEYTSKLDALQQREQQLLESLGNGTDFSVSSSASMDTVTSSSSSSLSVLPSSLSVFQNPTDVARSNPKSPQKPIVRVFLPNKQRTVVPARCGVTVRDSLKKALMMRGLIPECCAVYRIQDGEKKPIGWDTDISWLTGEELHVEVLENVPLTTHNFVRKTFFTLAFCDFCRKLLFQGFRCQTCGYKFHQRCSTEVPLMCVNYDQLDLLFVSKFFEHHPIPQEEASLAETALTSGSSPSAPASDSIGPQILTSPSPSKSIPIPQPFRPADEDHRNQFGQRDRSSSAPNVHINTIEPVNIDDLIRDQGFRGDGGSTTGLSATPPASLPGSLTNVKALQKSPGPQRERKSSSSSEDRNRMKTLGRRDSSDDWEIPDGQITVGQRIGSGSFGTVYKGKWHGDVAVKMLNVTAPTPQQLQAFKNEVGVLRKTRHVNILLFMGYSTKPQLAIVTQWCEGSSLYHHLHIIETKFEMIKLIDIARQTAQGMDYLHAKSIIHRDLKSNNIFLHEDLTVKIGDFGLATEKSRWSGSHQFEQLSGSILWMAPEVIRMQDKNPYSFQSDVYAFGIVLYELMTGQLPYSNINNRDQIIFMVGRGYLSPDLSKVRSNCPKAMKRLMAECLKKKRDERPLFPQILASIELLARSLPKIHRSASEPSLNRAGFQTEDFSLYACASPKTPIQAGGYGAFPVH

Row | SMILES | Dmax [1] | DC50 [2] | Dmax [3] | DC50 [4]
1 | O=C1CCC(c2ccc(N3CCC(CN4CCN(c5ccc(-n6cc(-c7cc(F)cc(NS(=O)(=O)N8CCCC8)c7F)c(-c7ccncc7)n6)c(F)c5)CC4)CC3)nc2)C(=O)N1 (racemic) [Compound 341, Rac-N-{3-[1-(4-{4-[(1-{5-[(3R)-2,6-dioxopiperidin-3-yl]pyridin-2-yl}piperidin-4-yl)methyl]piperazin-1-yl}-2-fluorophenyl)-3-(pyridin-4-yl)-1H-pyrazol-4-yl]-2,5-difluorophenyl}pyrrolidine-1-sulfonamide] | – | < 0.01 µM | > 70% | –
2 | O=C1CCC(c2ccc(N3CCC(CN4CCN(c5cnc(-n6cc(-c7cc(F)cc(NS(=O)(=O)N8CCCC8)c7F)c(-c7ccncc7)n6)nc5)CC4)CC3)nc2)C(=O)N1 (racemic) [Compound 343, Rac-N-{3-[1-(5-{4-[(1-{5-[(3R)-2,6-dioxopiperidin-3-yl]pyridin-2-yl}piperidin-4-yl)methyl]piperazin-1-yl}pyrimidin-2-yl)-3-(pyridin-4-yl)-1H-pyrazol-4-yl]-2,5-difluorophenyl}pyrrolidine-1-sulfonamide] | – | < 0.01 µM | > 70% | –
3 | CCCS(=O)(=O)Nc1cccc(-c2nc(C3CCN(Cc4ccc(C(=O)N[C@@H]5CCC(=O)NC5=O)cc4)CC3)sc2-c2ccnc(N)n2)c1F [Compound 255, 4-({4-[5-(2-aminopyrimidin-4-yl)-4-[2-fluoro-3-(propane-1-sulfonamido)phenyl]-1,3-thiazol-2-yl]piperidin-1-yl}methyl)-N-[(3R)-2,6-dioxopiperidin-3-yl]benzamide] | – | > 0.5 µM | < 30% | –
4 | CCCS(=O)(=O)Nc1cccc(-c2nc(C(C)(C)C)sc2-c2ccnc(NC3CC4(C3)CN(C(=O)C3CN(C5CCN(c6ccc7c(c6)C(=O)N(C6CCC(=O)NC6=O)C7=O)CC5)C3)C4)n2)c1F (racemic) [Compound 154, Rac-N-(3-{2-tert-butyl-5-[2-({2-[1-(1-{2-[(3R)-2,6-dioxopiperidin-3-yl]-1,3-dioxo-2,3-dihydro-1H-isoindol-5-yl}piperidin-4-yl)azetidine-3-carbonyl]-2-azaspiro[3.3]heptan-6-yl}amino)pyrimidin-4-yl]-1,3-thiazol-4-yl}-2-fluorophenyl)propane-1-sulfonamide] | > 70% | – | – | 0.05 to 0.5 µM
5 | CCCS(=O)(=O)Nc1cccc(-c2nc(C3CCC4(CC3)CN(C(=O)CN3CCN(c5ccc6c(c5)C(=O)N(C5CCC(=O)NC5=O)C6=O)CC3)C4)sc2-c2ccnc(N)n2)c1F (racemic) [Compound 230, Rac-N-{3-[5-(2-aminopyrimidin-4-yl)-2-{2-[2-(4-{2-[(3R)-2,6-dioxopiperidin-3-yl]-1,3-dioxo-2,3-dihydro-1H-isoindol-5-yl}piperazin-1-yl)acetyl]-2-azaspiro[3.5]nonan-7-yl}-1,3-thiazol-4-yl]-2-fluorophenyl}propane-1-sulfonamide] | 30 to 70% | – | – | < 0.01 µM
6 | CCCS(=O)(=O)Nc1cccc(-c2nc(C3CCC4(CC3)CCN(C(=O)CN3CCC5(CC3)CN(c3ccc6c(c3)C(=O)N(C3CCC(=O)NC3=O)C6=O)C5)CC4)sc2-c2ccnc(N)n2)c1F (racemic) [Compound 237, Rac-N-{3-[5-(2-aminopyrimidin-4-yl)-2-{3-[2-(2-{2-[(3R)-2,6-dioxopiperidin-3-yl]-1,3-dioxo-2,3-dihydro-1H-isoindol-5-yl}-2,7-diazaspiro[3.5]nonan-7-yl)acetyl]-3-azaspiro[5.5]undecan-9-yl}-1,3-thiazol-4-yl]-2-fluorophenyl}propane-1-sulfonamide] | > 70% | – | – | < 0.01 µM
7 | CCCS(=O)(=O)Nc1cccc(-c2nc(C3CCC4(CC3)CCN(C(=O)CC3CCN(C5CCN(c6ccc7c(c6)C(=O)N(C6CCC(=O)NC6=O)C7=O)CC5)CC3)CC4)sc2-c2ccnc(N)n2)c1F (racemic) [Compound 248, Rac-N-{3-[5-(2-aminopyrimidin-4-yl)-2-{3-[2-(1′-{2-[(3R)-2,6-dioxopiperidin-3-yl]-1,3-dioxo-2,3-dihydro-1H-isoindol-5-yl}-[1,4′-bipiperidin]-4-yl)acetyl]-3-azaspiro[5.5]undecan-9-yl}-1,3-thiazol-4-yl]-2-fluorophenyl}propane-1-sulfonamide] | – | < 0.01 µM | > 70% | –
8 | CCCS(=O)(=O)Nc1cccc(-c2cn(-c3ccc(N4CCN(CC5(C)CCN(c6ccc(C7CCC(=O)NC7=O)cn6)CC5)CC4)cc3)nc2-c2ccncc2)c1F (racemic) [Compound 17, Rac-N-{3-[1-(4-{4-[(1-{5-[(3R)-2,6-dioxopiperidin-3-yl]pyridin-2-yl}-4-methylpiperidin-4-yl)methyl]piperazin-1-yl}phenyl)-3-(pyridin-4-yl)-1H-pyrazol-4-yl]-2-fluorophenyl}propane-1-sulfonamide] | 30 to 70% | – | – | 0.05 to 0.5 µM
9 | CCCS(=O)(=O)Nc1cccc(-c2nc(C3(C)CCN(C(=O)CN4CCN(c5ccc6c(c5)C(=O)N(C5CCC(=O)NC5=O)C6=O)CC4)CC3)sc2-c2ccnc(N)n2)c1F (racemic) [Compound 232, Rac-N-{3-[5-(2-aminopyrimidin-4-yl)-2-{1-[2-(4-{2-[(3R)-2,6-dioxopiperidin-3-yl]-1,3-dioxo-2,3-dihydro-1H-isoindol-5-yl}piperazin-1-yl)acetyl]-4-methylpiperidin-4-yl}-1,3-thiazol-4-yl]-2-fluorophenyl}propane-1-sulfonamide] | 30 to 70% | – | – | 0.05 to 0.5 µM

The next lines start with the values.

Row | Dmax [1] | DC50 [2] | Dmax [3] | DC50 [4] | SMILES
10 | 30 to 70% | – | – | – | CCCS(=O)(=O)Nc1cccc(-c2nc(C(C)(C)C)sc2-c2ccnc(Nc3ccc4c(c3)CCN(C(=O)C3CCN(c5ccc(C(=O)NC6CCC(=O)NC6=O)nc5)CC3)C4)n2)c1F (racemic) [Compound 122, Rac-5-(4-{6-[(4-{2-tert-butyl-4-[2-fluoro-3-(propane-1-sulfonamido)phenyl]-1,3-thiazol-5-yl}pyrimidin-2-yl)amino]-1,2,3,4-tetrahydroisoquinoline-2-carbonyl}piperidin-1-yl)-N-[(3R)-2,6-dioxopiperidin-3-yl]pyridine-2-carboxamide]
11 | > 70% | – | – | < 0.01 µM | CCCS(=O)(=O)Nc1cccc(-c2nc(C)sc2-c2ccnc(Nc3ccc(C4CCN(CC5CCN(c6ccc([C@H]7CCC(=O)NC7=O)cc6)CC5)CC4)cc3)n2)c1F [Compound 63, N-[3-(5-{2-[(4-{1-[(1-{4-[(3R)-2,6-dioxopiperidin-3-yl]phenyl}piperidin-4-yl)methyl]piperidin-4-yl}phenyl)amino]pyrimidin-4-yl}-2-methyl-1,3-thiazol-4-yl)-2-fluorophenyl]propane-1-sulfonamide]
12 | 30 to 70% | – | – | 0.05 to 0.5 µM | CCCS(=O)(=O)Nc1cccc(-c2nc(C(C)(C)C)sc2-c2ccnc(Nc3ccc(C4CCN(C(=O)CC5CCN(C6CCN(c7ccc8c(c7)C(=O)N(C7CCC(=O)NC7=O)C8=O)CC6)CC5)CC4)cc3)n2)c1F (racemic) [Compound 158, Rac-N-[3-(2-tert-butyl-5-{2-[(4-{1-[2-(1′-{2-[(3R)-2,6-dioxopiperidin-3-yl]-1,3-dioxo-2,3-dihydro-1H-isoindol-5-yl}-[1,4′-bipiperidin]-4-yl)acetyl]piperidin-4-yl}phenyl)amino]pyrimidin-4-yl}-1,3-thiazol-4-yl)-2-fluorophenyl]propane-1-sulfonamide]
13 | 30 to 70% | – | – | 0.01 to 0.05 µM | CCCS(=O)(=O)Nc1cccc(-c2nc(C(C)(C)C)sc2-c2ccnc(Nc3ccc(C4CCN(CC5CCN(c6ccc([C@@H]7CCC(=O)NC7=O)cc6)CC5)CC4)cc3)n2)c1F [Compound 90, N-[3-(2-tert-butyl-5-{2-[(4-{1-[(1-{4-[(3S)-2,6-dioxopiperidin-3-yl]phenyl}piperidin-4-yl)methyl]piperidin-4-yl}phenyl)amino]pyrimidin-4-yl}-1,3-thiazol-4-yl)-2-fluorophenyl]propane-1-sulfonamide]
14 | 30 to 70% | – | – | 0.01 to 0.05 µM | CCCS(=O)(=O)Nc1cccc(-c2nc(C(C)(C)C)sc2-c2ccnc(N[C@H]3CC[C@H](CN4CCN(CC5CCN(c6ccc([C@@H]7CCC(=O)NC7=O)cc6)CC5)CC4)CC3)n2)c1F [Compound 139, N-{3-[2-tert-butyl-5-(2-{[(1r,4r)-4-({4-[(1-{4-[(3S)-2,6-dioxopiperidin-3-yl]phenyl}piperidin-4-yl)methyl]piperazin-1-yl}methyl)cyclohexyl]amino}pyrimidin-4-yl)-1,3-thiazol-4-yl]-2-fluorophenyl}propane-1-sulfonamide]
15 | 30 to 70% | – | – | > 0.5 µM | CCCS(=O)(=O)Nc1cccc(-c2nc(C(C)(C)C)sc2-c2ccnc(NC3CC4(CCN(C[C@H]5CC[C@H](Oc6ccc(C7CCC(=O)NC7=O)cc6)CC5)CC4)C3)n2)c1F (mixture of isomers) [Compound 130, N-[3-(2-tert-butyl-5-{2-[(7-{[(1r,4r)-4-{4-[(3RS)-2,6-dioxopiperidin-3-yl]phenoxy}cyclohexyl]methyl}-7-azaspiro[3.5]nonan-2-yl)amino]pyrimidin-4-yl}-1,3-thiazol-4-yl)-2-fluorophenyl]propane-1-sulfonamide]
16 | 30 to 70% | – | – | 0.01 to 0.05 µM | CCCS(=O)(=O)Nc1cccc(-c2nc(C(C)(C)C)sc2-c2ccnc(Nc3cccc(OC4CCN(C(=O)CN5CCN(c6cc(C7CCC(=O)NC7=O)ccn6)CC5)CC4)c3)n2)c1F (racemic) [Compound 93, Rac-N-{3-[2-tert-butyl-5-(2-{[3-({1-[2-(4-{4-[(3R)-2,6-dioxopiperidin-3-yl]pyridin-2-yl}piperazin-1-yl)acetyl]piperidin-4-yl}oxy)phenyl]amino}pyrimidin-4-yl)-1,3-thiazol-4-yl]-2-fluorophenyl}propane-1-sulfonamide]
